≈ marks a conversion by molar mass, not a printed value.

Assay in all cases: ≥ marks a high value that may be exact or a test limit, other limits are often not marked, values filed in µg/mL are converted to µM
Assay [1] concerns Pseudomonas aeruginosa ATCC 13388.
Assay [2] relates to Escherichia coli ATCC 11219.
Assay [3] concerns Klebsiella pneumoniae ATCC 10031.
In assay [4] the test system is Salmonella enterica subsp. enterica serovar Typhimurium ATCC 14028.
Assay [5] has as its system Staphylococcus aureus ATCC 6538.
Assay [6] concerns Bacillus subtilis KCTC 1918.
Assay [7] relates to Salmonella typhimurium KCTC 1926.
Assay [8] deals with Staphylococcus epidermidis KCTC 3096.
Assay [9] has as its system Trichosporon beigelii KCTC 7707.
Assay [10] concerns Pseudomonas aeruginosa KCTC 1637.
The test system of assay [11] is Candida albicans TIMM 1768.
Assay [12] concerns Ralstonia solanacearum ATCC 33192.
Assay [13] has as its system Bacillus subtilis CMCC 63501.
Assay [14] concerns Staphylococcus aureus ATCC 25923.
For assay [15], the system named is Escherichia coli ATCC 25922.
Assay [16] relates to Streptococcus pneumoniae ATCC 49619.
The test system of assay [17] is Salmonella enterica subsp. enterica serovar Typhi CMCC 50071.
The subject of assay [18] is Shigella dysenteriae CMCC 51252.
In assay [19] the test system is Micrococcus luteus CMCC 28001.
Assay [20] relates to Kocuria rhizophila DSM 348.
Assay [21] concerns Franconibacter helveticus DSM 18396.
Assay [22] relates to Bacillus subtilis DSM 347.
Assay [23] concerns Escherichia coli DH5alpha.
Assay [24] deals with Trichophyton rubrum KCTC 6345.
Another assay concerns Pseudomonas aeruginosa.
The next assay has as its system Staphylococcus aureus.
The test system of assay [25] is Pseudomonas aeruginosa ATCC 15692.
Assay [26] relates to Candida tropicalis KCTC 7221.
For assay [27], the system named is Fusarium oxysporum KCTC 16909.
Assay [28] relates to Candida krusei CCARM 14017.
For assay [29], the system named is Fusarium verticillioides KCTC 6149.
Assay [30] deals with Bacillus subtilis KCTC 1998.
In assay [31] the test system is Candida albicans KCTC 7270.
For assay [32], the system named is Aspergillus flavus KCTC 6905.
In assay [33] the test system is Aspergillus fumigatus KCTC 6145.
In assay [34] the test system is Candida parapsilosis CCARM 14016.
The test system of assay [35] is Fusarium solani KCTC 6326.

Consider `CC[C@H](C)[C@H](NC(=O)CN)C(=O)N[C@@H](Cc1cnc[nH]1)C(=O)N[C@@H](CC(=O)O)C(=O)N[C@H](C(=O)N[C@@H](CC(C)C)C(=O)N[C@@H](CCCCN)C(=O)N[C@@H](Cc1ccc(O)cc1)C(=O)NCC(=O)N[C@@H](C)C(=O)N1CCC[C@H]1C(=O)N[C@@H](CO)C(N)=O)[C@@H](C)CC` [GIHDILKYGAPS], for which the MIC in assay [1] is not below 50 µM; in [2], 15 µM (≈ 19 µg/mL); in [3] it was 10 µM (≈ 12.7 µg/mL); in assay [4], more than 50 µM; in assay [5], 20 µM (≈ 25.4 µg/mL).
Consider `CC[C@H](C)[C@H](NC(=O)CNC(=O)[C@@H](NC(=O)[C@H](CCCCN)NC(=O)[C@H](CCCCN)NC(=O)[C@H](Cc1ccccc1)NC(=O)[C@H](CC(C)C)NC(=O)[C@H](CCCCN)NC(=O)[C@H](Cc1c[nH]c2ccccc12)NC(=O)[C@@H](N)CCCCN)[C@@H](C)CC)C(=O)NCC(=O)N[C@@H](CCCCN)C(=O)N[C@@H](Cc1ccccc1)C(=O)N[C@@H](CC(C)C)C(=O)N[C@@H](CCCCN)C(=O)N[C@@H](CCCCN)C(=O)N[C@@H](CCCCN)C(N)=O` [KWKLFKKIGIGKFLKKK], for which the minimum inhibitory concentration (MIC) was determined as 3.12 µM (≈ 6.52 µg/mL) in assay [6]; 0.19 µM (≈ 0.397 µg/mL) in assay [7]; 3.12 µM (≈ 6.52 µg/mL) in assay [8]; 6.25 µM (≈ 13.1 µg/mL) in [9]; 2.21 µM (≈ 4.61 µg/mL) in assay [10]; 12.5 µM (≈ 26.1 µg/mL) in [11].
For `CC[C@H](C)[C@H](NC(=O)[C@H](Cc1c[nH]c2ccccc12)NC(=O)[C@@H](N)CCSC)C(=O)N[C@H](C(=O)N[C@@H](CC(N)=O)C(=O)NCC(=O)NCC(=O)N[C@H](C(=O)N[C@@H](C)C(=O)N[C@@H](CC(N)=O)C(=O)N[C@@H](Cc1c[nH]c2ccccc12)C(=O)N[C@@H](Cc1ccc(O)cc1)C(=O)N[C@@H](Cc1ccccc1)C(=O)N[C@H](C(=O)N[C@@H](CC(C)C)C(=O)N[C@@H](C)C(=O)N[C@@H](CCCN=C(N)N)C(=O)O)C(C)C)C(C)C)[C@@H](C)O` [MWITNGGVANWYFVLAR], the MIC in assay [12] was 6.26 µM (≈ 12.5 µg/mL); in assay [13], 6.26 µM (≈ 12.5 µg/mL); in assay [14], 12.5 µM (≈ 25 µg/mL); in assay [15], 6.26 µM (≈ 12.5 µg/mL); in assay [16], 6.26 µM (≈ 12.5 µg/mL); in [17] it was 3.13 µM (≈ 6.25 µg/mL). Further, the MIC in assay [18] was 1.57 µM (≈ 3.14 µg/mL); in assay [19], 12.5 µM (≈ 25 µg/mL).
`CC[C@H](C)[C@H](NC(=O)CN)C(=O)NCC(=O)N[C@@H](CCCCN)C(=O)N[C@@H](Cc1ccccc1)C(=O)N[C@@H](CC(C)C)C(=O)N[C@@H](Cc1cnc[nH]1)C(=O)N[C@@H](CO)C(=O)N[C@@H](C)C(=O)N[C@@H](CCCCN)C(=O)N[C@@H](CCCCN)C(=O)N[C@@H](Cc1ccccc1)C(=O)NCC(=O)N[C@@H](CCCCN)C(=O)N[C@@H](C)C(=O)N[C@@H](C)C(=O)N[C@H](C(=O)NCC(=O)N[C@@H](CCC(=O)O)C(=O)N[C@H](C(=O)N[C@@H](CCSC)C(=O)N[C@@H](CC(N)=O)C(=O)N[C@@H](CO)C(=O)O)[C@@H](C)CC)C(C)C` [GIGKFLHSAKKFGKAAVGEIMNS]: the MIC in [20] is 4 µM (≈ 9.56 µg/mL); in assay [21], not below 128 µM; in assay [22], 16 µM (≈ 38.3 µg/mL); in assay [23], not below 128 µM.
`CC[C@H](C)[C@H](NC(=O)[C@H](CC(C)C)NC(=O)[C@H](CCCCN)NC(=O)[C@H](CCCCN)NC(=O)[C@H](CC(C)C)NC(=O)[C@H](CCCN=C(N)N)NC(=O)[C@H](CCCCN)NC(=O)[C@@H](N)Cc1ccccc1)C(=O)N[C@@H](CO)C(=O)N[C@@H](Cc1c[nH]c2ccccc12)C(=O)N[C@H](C(=O)N[C@@H](CCCCN)C(=O)N[C@@H](CCCN=C(N)N)C(=O)N[C@@H](CCCCN)C(=O)N[C@@H](CCCN=C(N)N)C(=O)N[C@@H](CCC(N)=O)C(=O)N[C@@H](CCC(N)=O)C(N)=O)[C@@H](C)CC` [FKRLKKLISWIKRKRQQ]: the MIC in assay [24] was 1.41 µM (≈ 3.19 µg/mL); with Pseudomonas aeruginosa, 1.41 µM (≈ 3.19 µg/mL); against Staphylococcus aureus, 1.41 µM (≈ 3.19 µg/mL); in assay [25], 2 µM (≈ 4.51 µg/mL); in assay [26], 4 µM (≈ 9.02 µg/mL); in assay [9] it was 1 µM (≈ 2.26 µg/mL). Besides, the MIC in [27] turned out to be 1.41 µM (≈ 3.19 µg/mL); in [28] it was 8 µM (≈ 18 µg/mL); in assay [14], 2 µM (≈ 4.51 µg/mL); in [15], 1 µM (≈ 2.26 µg/mL); in [29], 1.41 µM (≈ 3.19 µg/mL); in [30] it was 2 µM (≈ 4.51 µg/mL). The MIC was 16 µM (≈ 36.1 µg/mL) in assay [31]; 2.83 µM (≈ 6.38 µg/mL) in [32]; 2.83 µM (≈ 6.38 µg/mL) in assay [33]; 16 µM (≈ 36.1 µg/mL) in assay [34]; 1 µM (≈ 2.26 µg/mL) in [35].

In general, MIC refers to the lowest concentration that inhibits growth of the organism. A low value points to inhibition by little substance.
